Assay results taken from patent US20210244720A1, “Therapeutic Tyrosine Kinase Inhibitors for Relapsing Multiple Sclerosis (RMS)” (Genzyme Corporation, priority 2020, published 2021).

How the values were obtained:
[1] = test system: RGS1 mRNA in naive mouse microglia; test: Naive primary mouse microglia, RGS1 quantitative Real time PCR; assay type: cell-based; conditions: 2.5 μM, 6 and 24 hours
Method: Primary mouse microglia were prepared from postnatal mice as described above, and were treated with 2.5 μM of the BTKi inhibitor for 6 and 24 hours. RNA was isolated and was analyzed by quantitative Real time PCR (Taqman, Thermo Fisher).

[2] = test system: CD19+ B-cell counts; test: Phase 1 absolute CD19+ B-cell counts
From the text: Dose regimen: The dose range chosen for this study is informed by several assessments.

[3] = Pharmacokinetics in RMS patients, fed versus fasting status; assay type: in vivo, human; conditions: RMS patients of the Phase 2b study
Method: An additional PK sample is collected 3 hours post-dose (±0.5 hour) at visits during Weeks 4 and 12 for all participants in both cohorts. Data of the most recent meal prior to PK sampling are noted in the eCRF.
Additional PK parameters such as Cmax, […], and AUC at steady state are estimated using a population PK approach.
Samples from the two groups were obtained and anaylzed to evaluate pharmacokinetics parameters as described in Example 1.10 above.

[4] = biological target: T1, CYP2C8 (Homo sapiens, UniProt P10632); test: Preclinical drug metabolism studies, CYP2C8; assay type: in vitro ADME
T1 sequence (P10632 1-490): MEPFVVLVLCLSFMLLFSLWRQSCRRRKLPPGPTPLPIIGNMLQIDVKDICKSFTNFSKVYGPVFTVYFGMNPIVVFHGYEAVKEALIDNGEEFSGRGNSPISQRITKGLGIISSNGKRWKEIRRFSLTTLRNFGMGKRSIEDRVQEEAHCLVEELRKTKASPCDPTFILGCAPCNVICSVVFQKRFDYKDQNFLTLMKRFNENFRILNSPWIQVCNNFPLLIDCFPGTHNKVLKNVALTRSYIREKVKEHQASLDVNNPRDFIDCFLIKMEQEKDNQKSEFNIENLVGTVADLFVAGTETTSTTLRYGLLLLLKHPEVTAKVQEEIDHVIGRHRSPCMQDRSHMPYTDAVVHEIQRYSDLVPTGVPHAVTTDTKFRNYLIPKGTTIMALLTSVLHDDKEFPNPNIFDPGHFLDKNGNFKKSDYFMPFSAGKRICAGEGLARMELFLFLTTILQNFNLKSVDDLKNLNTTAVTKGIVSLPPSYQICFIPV
From the text: (§1) See Table 12 for the list of drugs not to be used.

[5] = test system: CYP3A; test: Preclinical drug metabolism studies, CYP3A; assay type: in vitro ADME
From the text: as §1

[6] = test system: RGS1 and BTK-dependent gene signature in primary mouse microglial cells; conditions: 2.5 μM, IgG 50 μg/mL, 24 h, FPKM
From the text: Primary cultures of microglia were obtained from brains of C57BL/6 postnatal mice. The mice were anesthetized with CO2 and subsequently decapitated with sterilized scissors. Brains were harvested and meninges were removed. The brains were placed in ice cold complete DMEM/F12 medium and kept on ice until processing.
The brains were removed from the medium by filtering through a 40 μm cell strainer. […] The dissociation reaction was quenched with an equal volume of complete DMEM/F12. The tissue was centrifuged at 300×g for 7 minutes. The tissue pellet was washed 3 times with complete DMEM/F12, centrifuged at 300×g for 7 minutes. After the final wash, tissue pellet was re-suspended in complete DMEM/F12 (˜1 mL/brain), triturated until no chunks are visible, then filtered through a 70 μm cell strainer. […]
The single cell suspensions were filtered through 70 μm cell strainers, centrifuged at 200×g for 6 minutes, and re-suspended at 1×10^8 cells/mL in separation media. […] After the last wash, the labeled CD11b+ microglia cells were resuspended in serum free NbActiv1 media, counted and re-suspended at the desired concentration. […]
Analysis of the RNASeq library data was conducted within Omicsoft's Array Studio platform following a standard RNAseq protocol. In general, the sequencing reads were quality checked and the samples were mapped to the mouse mm10 reference genome using the ENSEMBL.R89 gene model. […]

[7] = test system: RGS1 mRNA in brain; test: In vivo mouse study, brain RGS1 Real-time PCR; conditions: naive mice, oral, once a day for 5 days, 0.6, 6, and 24 mg/kg
Method: Mice were sacrificed on day 5, 1 h post-final dose, and PBS perfused before brain was isolated. RNA was isolated from brain using the Rneasy Lipid tissue RNA isolation kid (Qiagen). RGS1 was quantified using Real-time PCR and Taqman probe (FIG. 6; one-way ANOVA, **p<0.01).

[8] = test system: participants with relapsing multiple sclerosis (RMS); test: Phase 2b dose-finding study in RMS: brain MRI lesion counts; conditions: for New Gd-enhancing T1-hyperintense lesions: patients with 0 lesions, % / New Gd-enhancing T1-hyperintense lesions: patients with 1 lesion, % / New Gd-enhancing T1-hyperintense lesions: patients with 2 lesions, % / New Gd-enhancing T1-hyperintense lesions: patients with >=3 lesions, % / New or enlarging T2 lesions: patients with 0 lesions, % / New or enlarging T2 lesions: patients with 1 lesion, % / New or enlarging T2 lesions: patients with 2 lesions, % / New or enlarging T2 lesions: patients with >=3 lesions, % / Total Gd-enhancing T1-hyperintense lesions: patients with 0 lesions, % / Total Gd-enhancing T1-hyperintense lesions: patients with 1 lesion, % / Total Gd-enhancing T1-hyperintense lesions: patients with 2 lesions, % / Total Gd-enhancing T1-hyperintense lesions: patients with >=3 lesions, %: after 12 weeks
Method: People diagnosed with RMS are eligible for enrollment as long as they meet all inclusion and no exclusion criteria.
Cranial (brain) MRI with and without Gd contrast is performed. Basic MRIs are performed for all participants at all study sites and consist of T2- and T1-weighted sequences without and with Gd contrast.
New T1 Gd-enhancing hyperintense and new and enlarging T2 lesions are evaluated at each visit as per the SoA (Table 1), comparing lesion count to that from the previous MRI scan. Unless specified otherwise, the baseline brain MRI is used as the reference to assess all MRI-derived endpoints. The baseline MRI is the last MRI performed before the randomization visit. Standardized endpoint evaluation is assured by central review of brain MRI scans. Blinded central review is performed for all MRI-derived endpoints. Magnetic resonance imaging reviewers are blinded to treatment assignments and to other participant data.
The first step of this procedure tests for an efficacy signal (compared to the null hypothesis of a flat, no dose-response curve) in a procedure that controls the type 1 error. […] The second step is the Dose estimation of the dose-response curve, provided that an efficacy signal is established in the first step.
The 4-week post-randomization placebo data from Cohort 2 (i.e., Week 4 data from Cohort 2) is utilized as the placebo data at Week 12 in analysis, under the assumption of a constant rate of Gd-enhancing T1-hyperintense lesion formation if participants would be receiving placebo over 12 weeks. Participants in Cohort 2 contribute to the placebo data (at Week 4) as well as the data for 4 BTK inhibitor doses (at Week 16). […] If step 1 yields significant results, the best fitting model from the 6 predefined candidate models is chosen using the generalized Akaike information criterion (AIC).
The first step of this procedure tested for an efficacy signal (compared to the null hypothesis of a flat, no dose-response curve) in a procedure that controls the type 1 error.
The MRI assessments were excluded from the analyses if the participant was receiving systemic corticosteroids within the 30 days prior to the MRI assessment date. The 4-week post-randomization placebo data from Cohort 2 (i.e., Week 4 data from Cohort 2) was utilized as the placebo data at Week 12 in analysis under the assumption of a constant rate of Gd-enhancing T1-hyperintense lesion formation if participants were to receive placebo over 12 weeks. Participants in Cohort 2 contributed to the placebo data (at Week 4) as well as the data for 4 BTK inhibitor doses (at Week 16). The 4-week placebo run-out data from Cohort 1 was not included in the analysis. […] Test statistics and adjusted p-values were provided for all 6 candidate models.
For each secondary endpoint, a similar negative binomial model and the MCP-Mod procedure were used. As it is reasonable to assume a constant rate of lesion formation over 12 weeks under placebo treatment, the same approach as that utilized for the primary endpoint was used, i.e., using the Week 4 data in Cohort 2 as the Week 12 placebo data while accounting for within-participant correlation. Descriptive summary statistics over time were provided for each of the 4 BTK inhibitor dose groups.

Structure (SMILES): C=CC(=O)N1CCC[C@@H](n2c(=O)n(-c3ccc(Oc4ccccc4)cc3)c3c(N)nccc32)C1 [the BTK inhibitor, (R)-1-(1-acryloylpiperidin-3-yl)-4-amino-3-(4-phenoxyphenyl)-1H-imidazo[4,5-c]pyridin-2(3H)-one]
- RGS1 mRNA level in naive mouse microglia [1]: reduced
- dose at which the dose-response relationship for the CD19+ B-cell increase is maximal [2]: approximately 30 mg once daily
- median AUC, fed state compared to fasted state [3]: substantially increased
- CYP2C8 metabolism [4]: substrate
- CYP3A metabolism [5]: substrate
- RGS1 mRNA expression upregulated with IgG treatment [6]: blocked
- RGS1 mRNA expression in brain [7]: reduction of RGS1 mRNA expression was observed
- New Gd-enhancing T1-hyperintense lesions: patients with 0 lesions, % ([8]; 5 mg daily): (71.0) %
- New Gd-enhancing T1-hyperintense lesions: patients with 1 lesion, % ([8]; 5 mg daily): (6.5) %
- New Gd-enhancing T1-hyperintense lesions: patients with 2 lesions, % ([8]; 5 mg daily): (9.7) %
- New Gd-enhancing T1-hyperintense lesions: patients with >=3 lesions, % ([8]; 5 mg daily): (12.9) %
- New or enlarging T2 lesions: patients with 0 lesions, % ([8]; 5 mg daily): (61.3) %
- New or enlarging T2 lesions: patients with 1 lesion, % ([8]; 5 mg daily): (9.7) %
- New or enlarging T2 lesions: patients with 2 lesions, % ([8]; 5 mg daily): (12.9) %
- New or enlarging T2 lesions: patients with >=3 lesions, % ([8]; 5 mg daily): (16.1) %
- Total Gd-enhancing T1-hyperintense lesions: patients with 0 lesions, % ([8]; 5 mg daily): (64.5) %
- Total Gd-enhancing T1-hyperintense lesions: patients with 1 lesion, % ([8]; 5 mg daily): (12.9) %
- Total Gd-enhancing T1-hyperintense lesions: patients with 2 lesions, % ([8]; 5 mg daily): (6.5) %
- Total Gd-enhancing T1-hyperintense lesions: patients with >=3 lesions, % ([8]; 5 mg daily): (16.1) %
- New Gd-enhancing T1-hyperintense lesions: patients with 0 lesions, % ([8]; 15 mg daily): (67.7) %
- New Gd-enhancing T1-hyperintense lesions: patients with 1 lesion, % ([8]; 15 mg daily): (16.1) %
- New Gd-enhancing T1-hyperintense lesions: patients with 2 lesions, % ([8]; 15 mg daily): (3.2) %
- New Gd-enhancing T1-hyperintense lesions: patients with >=3 lesions, % ([8]; 15 mg daily): (12.9) %
- New or enlarging T2 lesions: patients with 0 lesions, % ([8]; 15 mg daily): (48.4) %
- New or enlarging T2 lesions: patients with 1 lesion, % ([8]; 15 mg daily): (22.6) %
- New or enlarging T2 lesions: patients with 2 lesions, % ([8]; 15 mg daily): (9.7) %
- New or enlarging T2 lesions: patients with >=3 lesions, % ([8]; 15 mg daily): (19.4) %
- Total Gd-enhancing T1-hyperintense lesions: patients with 0 lesions, % ([8]; 15 mg daily): (64.5) %
- Total Gd-enhancing T1-hyperintense lesions: patients with 1 lesion, % ([8]; 15 mg daily): (19.4) %
- Total Gd-enhancing T1-hyperintense lesions: patients with >=3 lesions, % ([8]; 15 mg daily): (16.1) %
- New Gd-enhancing T1-hyperintense lesions: patients with 0 lesions, % ([8]; 30 mg daily): (81.8) %
- New Gd-enhancing T1-hyperintense lesions: patients with 1 lesion, % ([8]; 30 mg daily): (12.1) %
- New Gd-enhancing T1-hyperintense lesions: patients with 2 lesions, % ([8]; 30 mg daily): (3.0) %
- New Gd-enhancing T1-hyperintense lesions: patients with >=3 lesions, % ([8]; 30 mg daily): (3.0) %
- New or enlarging T2 lesions: patients with 0 lesions, % ([8]; 30 mg daily): (72.7) %
- New or enlarging T2 lesions: patients with 1 lesion, % ([8]; 30 mg daily): (15.2) %
- New or enlarging T2 lesions: patients with 2 lesions, % ([8]; 30 mg daily): (3.0) %
- New or enlarging T2 lesions: patients with >=3 lesions, % ([8]; 30 mg daily): (9.1) %
- Total Gd-enhancing T1-hyperintense lesions: patients with 0 lesions, % ([8]; 30 mg daily): (75.8) %
- Total Gd-enhancing T1-hyperintense lesions: patients with 1 lesion, % ([8]; 30 mg daily): (12.1) %
- Total Gd-enhancing T1-hyperintense lesions: patients with 2 lesions, % ([8]; 30 mg daily): (6.1) %
- Total Gd-enhancing T1-hyperintense lesions: patients with >=3 lesions, % ([8]; 30 mg daily): (6.1) %
- New Gd-enhancing T1-hyperintense lesions: patients with 0 lesions, % ([8]; 60 mg daily): (90.3) %
- New Gd-enhancing T1-hyperintense lesions: patients with 1 lesion, % ([8]; 60 mg daily): (6.5) %
- New Gd-enhancing T1-hyperintense lesions: patients with 2 lesions, % ([8]; 60 mg daily): (3.2) %
- New or enlarging T2 lesions: patients with 0 lesions, % ([8]; 60 mg daily): (87.1) %
- New or enlarging T2 lesions: patients with 1 lesion, % ([8]; 60 mg daily): (3.2) %
- New or enlarging T2 lesions: patients with 2 lesions, % ([8]; 60 mg daily): (9.7) %
- Total Gd-enhancing T1-hyperintense lesions: patients with 0 lesions, % ([8]; 60 mg daily): (87.1) %
- Total Gd-enhancing T1-hyperintense lesions: patients with 1 lesion, % ([8]; 60 mg daily): (3.2) %
- Total Gd-enhancing T1-hyperintense lesions: patients with 2 lesions, % ([8]; 60 mg daily): (6.5) %
- Total Gd-enhancing T1-hyperintense lesions: patients with >=3 lesions, % ([8]; 60 mg daily): (3.2) %
- dose-response relationship, reduction in number of new active Gd-enhancing T1-hyperintense brain lesions ([8]; 5-60 mg once daily, 12 weeks): demonstrating a dose-response relationship
- new Gd-enhancing T1-hyperintense lesions in patients with higher AUC ([8]; patients with higher exposure): very few or no new Gd-enhancing T1-hyperintense lesions
